Measured values published in patent US11999707B1, “N′-(2-(5-(4-chlorophenyl)-1,3,4-oxadiazol-2-ylthio)acetoxy)-1-naphthimidamide as an antimicrobial compound” (KING FAISAL UNIVERSITY, priority 2023, dated 2024).

Legend:
Type in all cases: cell-based
Bacillus cereus = assay: Agar plate disc-diffusion, antibacterial, Bacillus cereus; details: Gram positive
Description: (§1) The agar plate disc-diffusion method was applied. […] The discs were then placed onto the surface of agar plates (nutrient agar for bacteria and Sabouraud's dextrose agar for fungi) seeded with the test organism. Each plate contained 15 mL of the agar medium, previously seeded with 0.2 mL of the broth culture of each organism pregrown for 18 hours. The plates were incubated at 37° C. for 48 hours and 72 hours for fungi. The inhibition zones were measured in mm. Discs impregnated with DMSO were used as a control, and their inhibition zone was subtracted from the tested compound's actual inhibition zone.

Staphylococcus aureus = assay: Agar plate disc-diffusion, antibacterial, Staphylococcus aureus; details: Gram positive
Description: as §1

Pseudomonas aeruginosa = assay: Agar plate disc-diffusion, antibacterial, Pseudomonas aeruginosa; details: Gram negative
Description: as §1

Escherichia coli = assay: Agar plate disc-diffusion, antibacterial, Escherichia coli; details: Gram negative
Description: as §1

Aspergillus flavus = assay: Agar plate disc-diffusion, antifungal, Aspergillus flavus; details: Fungal
Description: as §1

[1] = tested on: Chrysosporium keratinophilum; assay: Agar plate disc-diffusion, antifungal, Chrysosporium keratinophilum; details: Fungal
Description: as §1

[2] = A = concentration of comp. = 10,000 μL
[3] = B = concentration of comp. = 30,000 μL
[4] = C = concentration of comp. = 50,000 μL

SMILES: N/C(=N\OC(=O)CSc1nnc(-c2ccc(Cl)cc2)o1)c1cccc2ccccc12 [compound 3, N′-(2-(5-(4-chlorophenyl)-1,3,4-oxadiazol-2-ylthio)acetoxy)-1-naphthimidamide]
- inhibition zone, Bacillus Cereus, A (Bacillus cereus; [2]): 22 mm
- inhibition zone, Bacillus Cereus, B (Bacillus cereus; [3]): 25 mm
- inhibition zone, Bacillus Cereus, C (Bacillus cereus; [4]): 34 mm
- inhibition zone, Staphylococcus aureus, A (Staphylococcus aureus; [2]): 27 mm
- inhibition zone, Staphylococcus aureus, B (Staphylococcus aureus; [3]): 30 mm
- inhibition zone, Staphylococcus aureus, C (Staphylococcus aureus; [4]): 38 mm
- inhibition zone, Pseudomonas aeruginosa, A (Pseudomonas aeruginosa; [2]): 26 mm
- inhibition zone, Pseudomonas aeruginosa, B (Pseudomonas aeruginosa; [3]): 28 mm
- inhibition zone, Pseudomonas aeruginosa, C (Pseudomonas aeruginosa; [4]): 45 mm
- inhibition zone, Escherichia coli, A (Escherichia coli; [2]): 26 mm
- inhibition zone, Escherichia coli, B (Escherichia coli; [3]): 32 mm
- inhibition zone, Escherichia coli, C (Escherichia coli; [4]): 50 mm
- inhibition zone, Aspergillus flavus, A (Aspergillus flavus; [2]): 24 mm
- inhibition zone, Aspergillus flavus, B (Aspergillus flavus; [3]): 27 mm
- inhibition zone, Aspergillus flavus, C (Aspergillus flavus; [4]): 36 mm
- inhibition zone, Chrysosporium keratinophilum, A [1, 2]: 22 mm
- inhibition zone, Chrysosporium keratinophilum, B [1, 3]: 28 mm
- inhibition zone, Chrysosporium keratinophilum, C [1, 4]: 39 mm
